“Also recorded” adds a separate entry of the source.
Tests used:
D816V Kit = target: T1, D816V Kit (Homo sapiens, UniProt P10721, D816V); test: Kit D816V assay at Km (Caliper electrophoretic mobility shift); assay type: biochemical; details: 15 uM ATP, 25 C, 90 minutes
T1 construct: purchased Carna Bioscience 08-156
Method in brief: (§1)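 Read-out is the ratio of phosphorylated to unphosphorylated fluorescent peptide, resolved by mobility shift on a Caliper EZ Reader 2.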

wild type Kit = target: T2, wild type Kit (Homo sapiens, UniProt P10721); test: Kit wild type assay at Km (Caliper electrophoretic mobility shift); assay type: biochemical; details: 400 uM ATP, 25 C, 90 minutes; read-out: WT KIT
T2 construct: purchased Carna Bioscience 08-156
T2 sequence (P10721 26-976): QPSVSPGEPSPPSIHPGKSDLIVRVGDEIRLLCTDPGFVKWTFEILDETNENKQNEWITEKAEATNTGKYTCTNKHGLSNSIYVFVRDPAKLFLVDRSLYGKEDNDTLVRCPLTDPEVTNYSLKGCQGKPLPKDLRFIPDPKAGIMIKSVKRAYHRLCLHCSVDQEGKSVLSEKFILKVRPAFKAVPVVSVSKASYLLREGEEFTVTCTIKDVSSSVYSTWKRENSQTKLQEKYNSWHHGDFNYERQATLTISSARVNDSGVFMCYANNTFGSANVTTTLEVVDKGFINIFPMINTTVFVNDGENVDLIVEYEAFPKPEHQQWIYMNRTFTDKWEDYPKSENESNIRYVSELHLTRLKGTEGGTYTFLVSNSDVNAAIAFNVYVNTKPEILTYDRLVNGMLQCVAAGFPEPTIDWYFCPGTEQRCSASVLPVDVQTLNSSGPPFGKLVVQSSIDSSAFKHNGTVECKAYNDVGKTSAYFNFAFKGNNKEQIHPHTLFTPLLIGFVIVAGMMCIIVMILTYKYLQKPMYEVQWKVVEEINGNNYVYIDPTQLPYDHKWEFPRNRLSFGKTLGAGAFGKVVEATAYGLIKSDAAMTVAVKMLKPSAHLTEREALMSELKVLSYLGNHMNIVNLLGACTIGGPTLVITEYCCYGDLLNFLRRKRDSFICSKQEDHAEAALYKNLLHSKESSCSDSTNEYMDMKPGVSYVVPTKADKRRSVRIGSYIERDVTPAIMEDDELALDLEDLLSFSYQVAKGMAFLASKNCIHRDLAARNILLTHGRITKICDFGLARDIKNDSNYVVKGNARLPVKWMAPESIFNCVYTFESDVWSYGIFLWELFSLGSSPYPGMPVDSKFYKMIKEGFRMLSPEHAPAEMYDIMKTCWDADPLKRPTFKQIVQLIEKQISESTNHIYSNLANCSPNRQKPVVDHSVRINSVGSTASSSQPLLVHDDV
Method in brief: as §1

PDGFRA D842V = target: T3, PDGFRA D842V (Homo sapiens, UniProt P16234, D842V); test: PDGFRA D842V assay at Km (Caliper electrophoretic mobility shift); assay type: biochemical; details: 15 uM ATP, 25 C, 90 minutes; read-out: PDFGRA D842V
T3 construct: purchased ProQinase 0761-0000-1
T3 sequence (P16234 24-1089 D842V): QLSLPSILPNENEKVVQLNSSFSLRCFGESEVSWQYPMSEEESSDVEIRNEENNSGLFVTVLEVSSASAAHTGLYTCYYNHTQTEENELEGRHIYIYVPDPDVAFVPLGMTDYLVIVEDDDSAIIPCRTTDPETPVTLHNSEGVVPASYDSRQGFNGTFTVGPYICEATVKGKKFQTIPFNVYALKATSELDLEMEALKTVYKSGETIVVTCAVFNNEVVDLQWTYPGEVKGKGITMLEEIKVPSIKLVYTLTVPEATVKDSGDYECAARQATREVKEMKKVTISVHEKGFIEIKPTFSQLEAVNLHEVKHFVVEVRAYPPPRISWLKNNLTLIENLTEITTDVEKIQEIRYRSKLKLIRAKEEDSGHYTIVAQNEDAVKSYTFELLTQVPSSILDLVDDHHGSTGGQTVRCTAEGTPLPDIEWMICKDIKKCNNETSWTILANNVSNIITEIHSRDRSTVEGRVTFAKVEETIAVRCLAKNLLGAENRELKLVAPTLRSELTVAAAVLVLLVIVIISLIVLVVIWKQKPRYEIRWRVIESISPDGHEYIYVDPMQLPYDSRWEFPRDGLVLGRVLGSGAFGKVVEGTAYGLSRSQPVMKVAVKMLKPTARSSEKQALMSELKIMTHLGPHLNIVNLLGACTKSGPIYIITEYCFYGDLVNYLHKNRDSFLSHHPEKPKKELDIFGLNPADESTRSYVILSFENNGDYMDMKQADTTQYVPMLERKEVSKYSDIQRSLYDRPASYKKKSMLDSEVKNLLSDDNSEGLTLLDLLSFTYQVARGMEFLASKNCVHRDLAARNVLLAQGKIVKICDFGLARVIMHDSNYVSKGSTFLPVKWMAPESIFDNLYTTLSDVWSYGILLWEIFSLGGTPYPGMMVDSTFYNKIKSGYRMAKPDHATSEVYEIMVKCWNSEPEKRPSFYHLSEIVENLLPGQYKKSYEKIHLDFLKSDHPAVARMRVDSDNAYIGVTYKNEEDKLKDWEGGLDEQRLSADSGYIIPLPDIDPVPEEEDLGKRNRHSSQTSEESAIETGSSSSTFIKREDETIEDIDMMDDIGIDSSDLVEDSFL
Description: In order to assess the activity of chemical compounds against the relevant kinase of interest, the Caliper LifeSciences electrophoretic mobility shift technology platform is used. Fluorescently labeled substrate peptide is incubated in the presence of kinase and ATP so that a […] proportion of the peptide is phosphorylated. At the end of the reaction, the mix of phosphorylated (product) and non-phosphorylated (substrate) peptides are passed through the microfluidic system of the Caliper EZ Reader 2, under an applied potential difference. The presence of the phosphate group on the product peptide provides a difference in mass and charge between those of the substrate peptide, resulting in a separation of the substrate and product pools in the sample. As the pools pass a LEDS within the instrument, these pools are detected and resolved as separate peaks. The ratio between these peaks therefore reflects the activity of the chemical matter at that concentration in that well, under those conditions.
The reaction was stopped by the addition of 70 ul of Stop buffer (100 mM HEPES pH 7.5, 0.015% Brij 35, 35 mM EDTA and 0.2% of Coating Reagent 3 (Caliper Lifesciences)). The plate was then read on a Caliper EZReader 2 (protocol settings: −1.9 psi, upstream voltage −500, downstream voltage −3000, post sample sip 38 s).

[1] = target: T4, Kit D816V (HMC1.2 cells, Kit V560G and D816V) (Homo sapiens, UniProt P10721, D816V/V560G); test: HMC1.2 autophosphorylation assay (AlphaLISA, phospho-Y719 c-Kit); assay type: cell-based; details: Kit autophosphorylation at tyrosine 719, 90 minutes, read-out: Cellular Activity
T4 construct: endogenous in cells; host or cells: HMC1.2 cells
T4 sequence (P10721 26-976 V560G/D816V): as the sequence (P10721 26-976) above, with V535G, D791V counted along it
Method in brief: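 Serum-starved (overnight, serum-free IMDM) HMC1.2 cells were treated for 90 min with a 10-point compound series (25 uM–95.4 pM, 0.25% DMSO final). Lysates were probed with phospho-Y719 and total c-Kit antibodies (15 nM final) plus AlphaLISA acceptor and streptavidin donor beads (2 h each, RT), with AlphaScreen read-out.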

P815 tumor cells = test: P815 mastocytoma xenograft model; assay type: in vivo, mouse; details: female BALB/c nude mice, P815 s.c., p.o. BID x 10
Description: Compound 165 and Dasatinib were evaluated in a P815 mastocytoma xenograft model. P815 tumor cells (ATCC, Manassas, Va., cat # ATCC® TIB-64) were maintained in vitro as a suspension and monolayer culture in RPMI1640 medium supplemented with 10% fetal calf serum at 37° C. in an atmosphere of 5% CO2 in air. The tumor cells were sub-cultured twice weekly by trypsin-EDTA treatment. The cells growing in an exponential growth phase were harvested and counted for tumor inoculation.
Tumor sizes were measured every other day in two dimensions using a caliper, and the volume was expressed in mm^3 using the formula: V=0.5 a×b^2 where a and b were the long and short diameters of the tumor, respectively. […] T-C was calculated with T as the median time (in days) required for the treatment group tumors to reach a predetermined size (e.g., 1000 mm^3), and C as the median time (in days) for the control group tumors to reach the same size. […]
TGI was calculated for each group using the formula: TGI (%)=[1−(Ti−T0)/(Vi−V0)]×100; Ti is the average tumor volume of a treatment group on a given day, T0 is the average tumor volume of the treatment group on the day of treatment start, Vi is the average tumor volume of the vehicle control group on the same day with Ti, and V0 is the average tumor volume of the vehicle group on the day of treatment start. Tumor weight was measured at the endpoint. […]

T1 sequence (P10721 26-976 D816V): as the sequence (P10721 26-976) above, with D791V counted along it

IC50 (D816V Kit): 1.01 to 10 nM
IC50 (wild type Kit): 100 to 1000 nM
IC50 (PDGFRA D842V): 1.01 to 10 nM
IC50 [1]: 10 to 100 nM
Compound: O[C@@H]1CCCN(c2ccc(Nc3ncnc(N4CCN(c5ncc(Cc6ccccc6)cn5)CC4)n3)cc2)C1 [Compound 165]
tumor growth inhibition / antitumor activity (P815 tumor cells): effective in inhibiting tumor growth; also recorded: observable antitumor activity
